Data published in ChEMBL document CHEMBL1136676, “The inhibitory effects of squalene-derived triterpenes on protein phosphatase PP2A” (Bioorg Med Chem Lett, 2003).

Experiments:
[1] = test system: Serine/threonine-protein phosphatase 2A catalytic subunit alpha; test: Inhibitory activity against protein phosphatase (PP2A) at concentration of 100 uM using fluorescein diphosphate as substrate
[2] = Inhibition of protein phosphatase (PP2A) at 250 uM
[3] = test system: Serine/threonine-protein phosphatase 2A catalytic subunit alpha; test: Inhibitory activity against protein phosphatase (PP2A) at concentration of 10 uM using fluorescein diphosphate as substrate
[4] = test system: Serine/threonine-protein phosphatase 2A catalytic subunit alpha; test: Inhibitory activity against protein phosphatase (PP2A) at concentration of 1 uM using fluorescein diphosphate as substrate
[5] = Inhibition of protein phosphatase (PP2A) at 100 uM
Homo sapiens = species: Homo sapiens; test: Inhibition of protein phosphatase (PP2A) at 10 uM using fluorescein diphosphate
[6] = Inhibitory activity against protein phosphatase (PP2A) at 1 uM using fluorescein diphosphate
[7] = target: T1, Serine/threonine-protein phosphatase 2A activator (Homo sapiens) (UniProt Q15257); test: Inhibitory activity against protein phosphatase (PP2A) at a concentration of 100 uM using fluorescein diphosphate as substrate
T1 sequence (whole entry): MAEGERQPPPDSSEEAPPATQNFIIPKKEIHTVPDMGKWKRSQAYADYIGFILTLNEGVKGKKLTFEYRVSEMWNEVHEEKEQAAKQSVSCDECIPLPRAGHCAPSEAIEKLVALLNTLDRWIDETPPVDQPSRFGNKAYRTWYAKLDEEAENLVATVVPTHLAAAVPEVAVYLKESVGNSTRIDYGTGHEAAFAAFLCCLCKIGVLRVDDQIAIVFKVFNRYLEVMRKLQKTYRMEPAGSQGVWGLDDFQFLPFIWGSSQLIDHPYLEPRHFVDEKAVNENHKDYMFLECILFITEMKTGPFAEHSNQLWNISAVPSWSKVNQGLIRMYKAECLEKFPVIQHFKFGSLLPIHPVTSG

[8] = target: T1, Serine/threonine-protein phosphatase 2A activator (Homo sapiens); test: (§1) Inhibitory activity against protein phosphatase (PP2A) at a concentration of 250 uM using fluorescein diphosphate as substrate
[9] = target: T2, Serine/threonine-protein phosphatase 2A 55 kDa regulatory subunit B alpha isoform (Homo sapiens) (UniProt P63151); test: as §1
T2 sequence (whole entry): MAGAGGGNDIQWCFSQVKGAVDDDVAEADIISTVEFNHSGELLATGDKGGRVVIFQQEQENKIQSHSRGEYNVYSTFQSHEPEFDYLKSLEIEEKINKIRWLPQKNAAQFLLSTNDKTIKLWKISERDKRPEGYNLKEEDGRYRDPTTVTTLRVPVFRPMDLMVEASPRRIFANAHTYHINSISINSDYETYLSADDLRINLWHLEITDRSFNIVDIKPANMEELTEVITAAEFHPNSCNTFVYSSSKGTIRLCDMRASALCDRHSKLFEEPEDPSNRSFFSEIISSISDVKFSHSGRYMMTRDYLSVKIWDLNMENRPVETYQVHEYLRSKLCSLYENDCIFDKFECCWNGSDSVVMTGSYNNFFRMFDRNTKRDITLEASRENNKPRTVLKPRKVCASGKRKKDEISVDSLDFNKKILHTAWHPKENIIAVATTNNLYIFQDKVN

[10] = target: T1, Serine/threonine-protein phosphatase 2A activator (Homo sapiens); test: Inhibitory activity against protein phosphatase (PP2A) at concentration of 250 uM using fluorescein diphosphate as substrate
[11] = test system: Serine/threonine-protein phosphatase 2A catalytic subunit alpha; test: Inhibitory activity against protein phosphatase (PP2A) at a concentration of 125 uM using fluorescein diphosphate as substrate
[12] = test system: Serine/threonine-protein phosphatase 2A catalytic subunit alpha; test: Inhibitory activity against protein phosphatase (PP2A) at a concentration of 200 uM using fluorescein diphosphate as substrate
[13] = test system: Serine/threonine-protein phosphatase 2A catalytic subunit alpha; test: Inhibitory activity against protein phosphatase (PP2A) at a concentration of 150 uM using fluorescein diphosphate as substrate
[14] = target: T1, Serine/threonine-protein phosphatase 2A activator (Homo sapiens); test: Inhibitory activity against protein phosphatase (PP2A) at a concentration of 150 uM using fluorescein diphosphate as substrate

Compound | inhibition [2] [%] | inhibition [5] [%] | inhibition (Homo sapiens) [%] | inhibition [6] [%] | further results
C=C(CC[C@H](O)[C@@]1(C)CC[C@H](C(C)(C)O)O1)[C@H]1CC[C@H]2O[C@@H]([C@]3(C)CC[C@@H](Br)C(C)(C)O3)CC[C@]2(C)O1 |  |  | 12.2 | 8.2 | inhibition [7]: 25.2%; inhibition [8]: 37.7%
C=C(CC[C@@H](O)[C@]1(C)CC[C@H](C(C)(C)O)O1)[C@H]1CC[C@H]2O[C@@H]([C@]3(C)CC[C@@H](Br)C(C)(C)O3)CC[C@]2(C)O1 |  |  |  |  | inhibition [10]: 95.3%; inhibition [1]: 66.8%; inhibition [3]: 23.7%; inhibition [4]: 7.5%
C/C(=C/C[C@@H](O)[C@]1(C)CC[C@H](C(C)(C)O)O1)[C@H]1CC[C@H]2O[C@@H]([C@]3(C)CC[C@@H](Br)C(C)(C)O3)CC[C@]2(C)O1 | 59.8 | 6.5 |  |  | inhibition [11]: 18.8%; inhibition [12]: 35.8%; inhibition [13]: 32.7%
C=C(CC[C@H](O)[C@@]1(C)CC[C@H](C(C)(C)O)O1)[C@H]1CC[C@H]2O[C@@H]([C@]3(C)CC[C@](OC)(C(C)C)O3)CC[C@]2(C)O1 | 55.4 | 43.1 | 2.7 | 0 | 
CC(C)(O)[C@H]1CC[C@](C)([C@@H](O)CC[C@](O)(CO)C2=CC[C@H]3O[C@@H]([C@]4(C)CC[C@@H](Br)C(C)(C)O4)CC[C@]3(C)O2)O1 | 100 | 99.1 | 93.2 | 52.8 | 
C=C(CC[C@H](O)[C@@]1(C)CC[C@H](C(C)(C)O)O1)[C@H]1CC[C@H]2O[C@@H]([C@]3(C)CC[C@@H](C(C)(C)O)O3)CC[C@]2(C)O1 | 55.4 | 40.4 | 0 | 0 | 
C=C(CC[C@H](O)[C@@]1(C)CC[C@H](C(C)(C)O)O1)[C@H]1CC[C@H]2O[C@@H]([C@]3(C)CC[C@@H](Br)C(C)(C)O3)CC[C@@]2(C)O1 | 66.4 | 11.4 |  |  | inhibition [11]: 24%; inhibition [12]: 47.8%; inhibition [14]: 26.1%

Further lines, with some results ahead:

inhibition [2] [%] | inhibition [5] [%] | inhibition (Homo sapiens) [%] | inhibition [6] [%] | Compound | further results
66.5 |  |  |  | C=C(CC[C@H](O)[C@@]1(C)CC[C@H](C(C)(C)O)O1)[C@H]1CC[C@H]2O[C@]3(C)CC[C@@H](Br)C(C)(C)O[C@H]3CC[C@]2(C)O1 | inhibition [1]: 59.7%; inhibition [3]: 20.4%; inhibition [4]: 18.9%
57.2 | 65.1 | 4.7 | 0 | C=C(CC[C@H](O)[C@@]1(C)CC[C@H](C(C)(C)O)O1)[C@H]1CC[C@H]2O[C@@H]([C@]3(C)CC[C@@H](C(C)(C)OC)O3)CC[C@]2(C)O1 | 
100 | 100 | 93.4 | 41.1 | C=C([C@@H](O)C[C@H](O)[C@@]1(C)CC[C@H](C(C)(C)O)O1)[C@H]1CC[C@H]2O[C@@H]([C@]3(C)CC[C@@H](Br)C(C)(C)O3)CC[C@]2(C)O1 | 
 | 99.5 | 41.9 | 17.9 | C/C(=C\C[C@H](O)[C@@]1(C)CC[C@H](C(C)(C)O)O1)[C@H]1CC[C@H]2O[C@@H]([C@]3(C)CC[C@@H](Br)C(C)(C)O3)CC[C@@]2(C)O1 | inhibition [9]: 100%
74.5 | 57.8 | 45.9 |  | CC(CCC[C@H]1O[C@@H]([C@]2(C)CC[C@@H](Br)C(C)(C)O2)CC[C@]1(C)O)CC[C@H](O)[C@@]1(C)CC[C@H](C(C)(C)O)O1 (stereo partly specified) | inhibition [4]: 43.6%
79.3 | 65.1 | 45.6 | 42.2 | C=C([C@H](O)C[C@H](O)[C@@]1(C)CC[C@H](C(C)(C)O)O1)[C@H]1CC[C@H]2O[C@@H]([C@]3(C)CC[C@@H](Br)C(C)(C)O3)CC[C@]2(C)O1 | 
97.8 | 89.6 | 31.8 | 15.2 | CC(C)(O)[C@H]1CC[C@](C)([C@@H](O)CC[C@@](O)(CO)C2=CC[C@H]3O[C@@H]([C@]4(C)CC[C@@H](Br)C(C)(C)O4)CC[C@]3(C)O2)O1 | 
63.2 | 49.4 | 40.1 | 33.7 | C=C(CC[C@H](O)[C@@]1(C)CC[C@H](C(C)(C)O)O1)[C@H]1CC[C@H]2O[C@@H]([C@]3(C)CCC(=O)O3)CC[C@]2(C)O1 | 
81.3 | 74.7 | 6.2 | 0 | C=C(CC[C@H]1O[C@@H](C(C)(C)O)CC[C@]1(C)O)[C@H]1CC[C@H]2O[C@@H]([C@]3(C)CC[C@@H](Br)C(C)(C)O3)CC[C@]2(C)O1 | 
